According to US9163018B2, “Method of treatment of age-related macular degeneration (AMD)” (Prana Biotechnology Limited, priority 2006, dated 2015):

How the values were obtained:
[1] = tested on: dityrosine oligomerization; assay: CuTy: inhibition of dityrosine oligomerization; type: biochemical; conditions: referenced to in-house standard (set as 100% inhibition)
[2] = mouse, in vivo, 10 days
[3] = tested on: M17 human neuroblastoma cells; assay: Cytotoxicity, M17 human neuroblastoma cells; type: cell-based; conditions: for Cytotox (% viable) M17 cells at 1 μM: 1 μM test compound; for Cytotox (% viable) M17 cells at 10 μM: 10 μM test compound
Experimental: Assay 3. MTS Assay for Cell Viability
Cell viability is determined using the MTS assay. Culture medium is replaced with fresh neurobasal medium plus B27 supplements minus antioxidants. 1/10th volume MTS solution (Cell Titre 96 Aqueous One, Promega Corporation) and incubated at 37° C., 2 hrs. 200 microliter aliquots are measured with a spectrophotometer at 560 nm.

Aβ 1-42 = target: T1, Aβ 1-42 (Homo sapiens, UniProt P05067); assay: Fluorometric H2O2 assay (inhibition of Abeta H2O2 production); type: biochemical; conditions: concentration required to inhibit 50% of Abeta H2O2 production; read-out: H2O2 IC50
T1 construct: The reaction solutions contained Aβ 1-42 at concentrations
T1 sequence (P05067 672-713 limits assumed): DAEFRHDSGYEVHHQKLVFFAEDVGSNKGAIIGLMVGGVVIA
How it was run: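 Copper-dependent Aβ H2O2 production measured fluorometrically with deacetylated dichlorofluorescein plus HRP in PBS, pH 7.4. Incubation 60 min at 37 C, test compound included in wells. H2O2 quantified against H2O2 standards.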

[4] = Mice plasma concentration after oral dose; type: in vivo; conditions: 30 min to 4 h after single or repeat oral dose of 30 mg/kg
[5] = target: T2, Abeta:Zn (25:50 μM) Synthetic Aggregations (Homo sapiens, UniProt P05067); assay: Disaggregation of Abeta:Zn synthetic aggregates (ThT fluorescence); type: biochemical; conditions: for Disaggregation % Aggregate reduction at 5 μM: 5 μM test compound; for EC50: Abeta:Zn 25:50 μM aggregates
T2 construct: PB Compound Mediated Dissolution of Aggregated Abeta 1-42; purchased Keck Laboratory, Yale University School of Medicine
T2 sequence (P05067 672-713 limits assumed): as above
How it was run: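 Abeta1-42 (25 μM) with ZnCl2 (50 μM) and ThT (50 μM) in PBS pH 6.6 was preaggregated 24 h at 37 degrees with rotation. Aggregates were then exposed to compound (final 1-50 μM, DMSO) for 2 h at 37 degrees. ThT fluorescence was read at ex 450/em 480 nm.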

[6] = tested on: metal ions in retinal drusen; assay: Post mortem retina screening, ZP1 zinc labeling of Bruch membrane; conditions: 15 hours incubation; TPEN 100 μM, PB-1033 100 and 250 μM; 10 μM ZP1
Experimental: Post Mortem Screening The BAS assay is adopted for post mortem retina. Using a trephine, 6 mm diameter regions of peripheral retina from frozen donor eyes are dissected. Following defrosting, the neuronal retina and the RPE cells are removed by gentle agitation in PBS buffer. Following removal of the RPE cells, strips of the Bruch membrane are cut from the eye. 4 samples are prepared: 1) Control […] Samples are then washed 3 times and the labeling visualized using a fluorescence and confocal microscope. A repeat of this procedure is performed with the exception that samples are incubated for a period of 15 hours before washing to determine differential metal binding over this longer period. The test results are in the form of fluorescence imaging from a confocal microscope of the 4 samples tested in this Example after 15 hours of sample incubation. […] Fluorescence microscopic photographs (which are in colour) are available upon request from the […].

[7] = E Log D, chromatographic method; type: physicochemical; conditions: pH 7.4
Experimental: Effective Log D values were measured using a chromatographic method employing a SUPELCOSIL LC-ABZ column using an octanol saturated mobile phase at pH 7.4.

Aβ deposits = conditions: daily oral gavage 30 mg/kg, 9 weeks, 13-14 months old transgenic mice
[8] = tested on: Abeta in extract of post-mortem human AD brain tissue; assay: BAS: human brain amyloid solubilization assay; type: biochemical; conditions: max effect across the concentration range, referenced to baseline PBS
How it was run: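 Plaque-bearing post-mortem AD cortex homogenised in ice-cold PBS pH 7.4; soluble Aβ in 100,000×g supernatant, insoluble Aβ from resuspended pellet. Fractions run on Tris-Tricine SDS-PAGE, immunoblotted with W02, densitometry against synthetic Aβ40 standards.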

[9] = tested on: primary cortical neuronal cultured cells; assay: Test compound cytotoxicity, MTS assay, primary cortical neuronal cultures; type: cell-based, mouse
How it was run: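 Primary cortical neurons were cultured five days in Neurobasal/B27, then exposed on day six to compounds (from 2.5 mM DMSO stocks) in medium minus antioxidants, in triplicate for 4 days at 37° C. Viability was measured by MTS, 2 h at 37° C, absorbance at 560 nm.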

| SMILES | CuTy % inhibition of dityrosine oligomerization [1] | Toxicity at 30 mg/kg [2] | Cytotox (% viable) M17 cells at 1 μM [3] [%] | Cytotox (% viable) M17 cells at 10 μM [3] [%] | IC50 (Aβ 1-42) [nM] | Mice plasma concentration [4] | Disaggregation % Aggregate reduction at 5 μM [5] [%] | EC50 [5] [nM] | ZP1 (zinc sensor) labeling of post mortem Bruch membrane [6] | ElogD (E) [7] | Tg Mice % difference from control in Amyloid plaque abundance (Aβ deposits) | Tg Mice % difference from control in insoluble brain amyloid burden (Aβ deposits) | Tg Mice % difference from control in soluble brain amyloid burden (Aβ deposits) | BAS max effect [8] [%] | Cytotox (% viable) Neuronal cells at 1 μM ([9]; 1 μM test compound) [%] | Cytotox (% viable) Neuronal cells at 10 μM ([9]; 10 μM test compound) [%] |
| --- | --- | --- | --- | --- | --- | --- | --- | --- | --- | --- | --- | --- | --- | --- | --- | --- |
| Nc1cc(Cn2cnc3c(O)c(Cl)cc(Cl)c3c2=O)ccn1 [PB 1250] | CuTy: 80% inhibition | 10 days, 1/4 deaths | 114.8 | 100.7 | 480 | – | – | – | – | – | – | – | – | – | – | – |
| CCn1cnc2c(O)c(I)ccc2c1=S [PB 1168] | – | 10 days, none, 1/4 mild signs | 85.7 | 43 | 400 | Up to 400 ng/ ml ng/mL | 70 | 1110 | – | – | – | – | – | – | – | – |
| c1ccc(CN(CCN(Cc2ccccn2)Cc2ccccn2)Cc2ccccn2)nc1 [TPEN, reference compound] | – | – | – | – | – | – | – | – | inhibited ZP1 labeling | – | – | – | – | – | – | – |
| O=C(NCCc1c[nH]cn1)c1ccc2c(Cl)cc(Cl)c(O)c2n1 [PB 1038] | – | – | – | – | 260 | Up to 2694 ng/ mL ng/mL | 51.3 | 4850 | – | 2.92 | Decrease | Decrease | Increase | 627 | 91 | 84 |
| CCn1cnc2c(O)c(I)cc(Cl)c2c1=O [PB 1138] | – | 10 days, 2/4 deaths | 99.7 | 68.2 | 300 | Up to 1802 ng/ mL ng/mL | 53 | 4700 | – | – | – | – | – | – | – | – |
